Here are results for four compounds from patent US20250161404A1, “METHODS AND COMPOSITIONS FOR THE CONTROL OF INFLAMMATION IN SKIN DISEASE” (VANDERBILT UNIVERSITY, priority 2023, published 2025).

Data set [1] can be described thus: Solubility of the peptide. The data set is classed as physicochemical. Conditions: cSN50: depending on the method of synthesis and purification; read-out: soluble at levels of. On the procedure:
cSN50.1 is a cyclized peptide having the sequence of cSN50 with the exception that the tyrosine at position 18 of cSN50, adjacent to the first cysteine, has been removed. Methods of making and using cSN50 are described, for example, in U.S. Pat. Nos. 7,553,929 and 6,495,518. The amino acid sequence of cSN50.1 is […] (SEQ ID NO: 2). The tyrosine at position 18 was removed from the sequence of cSN50 to increase solubility. cSN50 is soluble at levels of ranging from 2.0 mg/mL to 40 mg/mL depending on the method of synthesis and purification whereas cSN50.1 is soluble at levels of at least 100 mg/ml. Any mimetics, derivatives, or homologs of cSN50.1 may be used in the compositions, methods, and kits disclosed herein. cSN50.1 is also encompassed by SEQ ID NO: 3, SEQ ID NO: 4 and SEQ ID NO: 5. Additional examples of NTMs include fragment-designed and synthesized peptides in which cargo is incorporated as two, rather than one, modules or cargos derived from intracellular proteins other than NFκB 1. Such additional examples include the sequences of SEQ ID NO: 6, SEQ ID NO: 7, SEQ ID NO: 8, and SEQ ID NO: 9.

Data set [2] in a line: Cell viability of cultured human keratinocytes. The data set is classed as cell-based. As to conditions: in all conditions, 48 hours after TNF-α/IL-17 challenge.
For data set [3] the following is noted: long-term NTCI treatment; cited from earlier work.
The target of a further data set is Imp beta (Homo sapiens, UniProt Q14974). In words: Cell culture and preclinical studies (Table 3 comment).
Chain of Imp beta (Q14974 whole entry): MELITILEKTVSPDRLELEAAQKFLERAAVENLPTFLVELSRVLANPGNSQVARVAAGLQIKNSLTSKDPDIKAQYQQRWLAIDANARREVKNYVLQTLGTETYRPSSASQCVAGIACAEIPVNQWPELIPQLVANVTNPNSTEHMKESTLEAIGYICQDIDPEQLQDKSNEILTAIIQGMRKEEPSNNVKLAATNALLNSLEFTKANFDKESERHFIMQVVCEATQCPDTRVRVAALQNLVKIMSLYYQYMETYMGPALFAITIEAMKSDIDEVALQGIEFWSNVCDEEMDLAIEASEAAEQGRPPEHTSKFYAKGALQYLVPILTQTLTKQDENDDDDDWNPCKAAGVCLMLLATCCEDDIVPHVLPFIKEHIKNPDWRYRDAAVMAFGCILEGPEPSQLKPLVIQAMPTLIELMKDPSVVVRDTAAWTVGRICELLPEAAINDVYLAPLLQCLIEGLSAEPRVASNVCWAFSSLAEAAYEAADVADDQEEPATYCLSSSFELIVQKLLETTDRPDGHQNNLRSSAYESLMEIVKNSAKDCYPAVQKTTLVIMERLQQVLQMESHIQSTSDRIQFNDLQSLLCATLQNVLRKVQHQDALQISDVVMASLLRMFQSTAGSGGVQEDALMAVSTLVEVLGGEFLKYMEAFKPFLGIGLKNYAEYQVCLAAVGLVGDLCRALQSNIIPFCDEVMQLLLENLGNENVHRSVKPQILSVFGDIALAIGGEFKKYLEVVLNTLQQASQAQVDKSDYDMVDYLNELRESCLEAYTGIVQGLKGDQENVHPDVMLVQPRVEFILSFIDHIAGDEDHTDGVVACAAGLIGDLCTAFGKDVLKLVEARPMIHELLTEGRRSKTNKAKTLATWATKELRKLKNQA
Another data set addresses Importin beta (Homo sapiens, UniProt Q14974). Kind of data set: Binding studies (Table 3 comment).

In brackets after ≈: the same amount, converted by molar mass. Where a SMILES comes first, the peptide text is derived from it. Bridges are numbered along the chain shown (N, C = ends).

Chain of Importin beta (Q14974 whole entry): as above

As to `CSCC[C@@H]1NC(=O)[C@H](CC(C)C)NC(=O)[C@H](CCCCN)NC(=O)[C@H](CCC(N)=O)NC(=O)[C@H](CCCNC(=N)N)NC(=O)[C@H](CCCCN)NC(=O)[C@H](CCCNC(=N)N)NC(=O)[C@H](CCC(N)=O)NC(=O)[C@H](C(C)C)NC(=O)[C@@H](NC(=O)[C@@H]2CCCN2C(=O)[C@H](C)NC(=O)[C@H](CC(C)C)NC(=O)[C@H](CC(C)C)NC(=O)[C@H](C)NC(=O)[C@H](CC(C)C)NC(=O)[C@H](CC(C)C)NC(=O)[C@@H](NC(=O)[C@H](C)NC(=O)[C@@H]2CCCN2C(=O)[C@H](CC(C)C)NC(=O)[C@H](CC(C)C)NC(=O)[C@H](C)NC(=O)[C@@H](NC(=O)[C@H](C)NC(=O)[C@H](C)N)C(C)C)C(C)C)CSSC[C@@H](C(=O)O)NC(=O)[C@@H]2CCCN2C1=O` [cSN50.1] (H-AAVALLPAVLLALLAPCVQRKRQKLMPC-OH; disulfide 17-28; N-terminus and C-terminus assumed), the solubility in data set [1] was no less than 100 mg/mL. The viability at 48 h in data set [2] is greater than 80%. In addition, the apparent toxicity entry in data set [3] is reported as “lack of apparent toxicity”.

As for `CSCC[C@@H]1NC(=O)[C@H](CC(C)C)NC(=O)[C@H](CCCCN)NC(=O)[C@H](CCC(N)=O)NC(=O)[C@H](CCCNC(=N)N)NC(=O)[C@H](CCCCN)NC(=O)[C@H](CCCNC(=N)N)NC(=O)[C@H](CCC(N)=O)NC(=O)[C@H](C(C)C)NC(=O)[C@H](Cc2ccc(O)cc2)NC(=O)[C@@H](NC(=O)[C@@H]2CCCN2C(=O)[C@H](C)NC(=O)[C@H](CC(C)C)NC(=O)[C@H](CC(C)C)NC(=O)[C@H](C)NC(=O)[C@H](CC(C)C)NC(=O)[C@H](CC(C)C)NC(=O)[C@@H](NC(=O)[C@H](C)NC(=O)[C@@H]2CCCN2C(=O)[C@H](CC(C)C)NC(=O)[C@H](CC(C)C)NC(=O)[C@H](C)NC(=O)[C@@H](NC(=O)[C@H](C)NC(=O)[C@H](C)N)C(C)C)C(C)C)CSSC[C@@H](C(=O)O)NC(=O)[C@@H]2CCCN2C1=O` [cSN50] (H-AAVALLPAVLLALLAPCYVQRKRQKLMPC-OH; disulfide 17-29; N-terminus and C-terminus assumed), the solubility in data set [1] lay in the range of 2 to 40 mg/mL (≈ 0.635 to 12.7 mM).

On to AAVALLPAVLLALLAPCVQRDEQKLMPC [cSN50.1β], for which, in the data set with Imp beta, the “Comments: importin selectivity” value is reported as “Imp beta-selective”.

Regarding “AAVALLPAVLLALLAPVQRDEQKLMP (Description of sequence: Peptide, name of peptide: SM12)”, the “Comments: importin selectivity” value in the data set with Importin beta is on record as “Importin beta-”.

What is called viability is a per cent measure of how many cells are alive, often set against a control. A high value points to less harm to the cells.
